# Results as given in ChEMBL document CHEMBL1150147, “Bioactive natural products from a sclerotium-colonizing isolate of Humicola fuscoatra” (2002).
# System: Aspergillus flavus
# Assay: Antifungal activity against Aspergillus flavus at 200 ug/disk by disk assay
# Format: functional
# Conditions: read-out: IZ
structure (smiles),measurement,value
CC(=O)O[C@@H]1C[C@]2(C)C3=C(CC[C@H]2C(C)(C)[C@@H]1O[C@@H]1O[C@H](CO)[C@@H](O)[C@H](O)[C@H]1O)[C@@]1(C)CC[C@](C)([C@H](C)C(C)C)[C@@H](C(=O)O)[C@]1(C)CC3 [FUSCOATROSIDE],zone of inhibition at 200 µg/disc,18 mm
